In the supplement of paper PMC10307832:

Tests used:
Experiment in all cases: relative viability (nuclei count vs DMSO), 5 days (fraction); higher = more cells survive
HCC-366 = test system: HCC-366
Summary of the method: (§1)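 Lung cancer cell lines, seeded in 1536-well plates, were treated the following day by pin tool with a single drug or with five library-drug doses (not always all listed) in √10 steps on top of a fixed anchor-drug dose. Cells were fixed and nuclei stained in one step after 5 days, and nuclei were counted. Relative viability is the nuclei count for treated wells divided by that for vehicle wells, reported as medians of duplicate plates.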

NCI-H460 = test system: NCI-H460
Summary of the method: as §1

NCI-H647 = test system: NCI-H647
Summary of the method: as §1

PC-14 = test system: PC-14
Summary of the method: as §1

NCI-H441 = test system: NCI-H441
Summary of the method: as §1

NCI-H1755 = test system: NCI-H1755
Summary of the method: as §1

NCI-H2347 = test system: NCI-H2347
Summary of the method: as §1

NCI-H596 = test system: NCI-H596
Summary of the method: as §1

UMC-11 = test system: UMC-11
Summary of the method: as §1

NCI-H2023 = test system: NCI-H2023
Summary of the method: as §1

NCI-H2405 = test system: NCI-H2405
Summary of the method: as §1

NCI-H1437 = test system: NCI-H1437
Summary of the method: as §1

A-427 = test system: A-427
Summary of the method: as §1

H3255 = test system: H3255
Summary of the method: as §1

PC-3 [JPC-3] = test system: PC-3 [JPC-3]
Summary of the method: as §1

LCLC-103H = test system: LCLC-103H
Summary of the method: as §1

HCC-44 = test system: HCC-44
Summary of the method: as §1

ABC-1 = test system: ABC-1
Summary of the method: as §1

NCI-H3122 = test system: NCI-H3122
Summary of the method: as §1

NCI-H23 = test system: NCI-H23
Summary of the method: as §1

LXF-289 = test system: LXF-289
Summary of the method: as §1

NCI-H2009 = test system: NCI-H2009
Summary of the method: as §1

COCC1(CO)C(=O)C2CCN1CC2 (stereo not drawn) [PRIMA-1MET] + Nc1ncn([C@H]2C[C@H](O)[C@@H](CO)O2)c(=O)n1 [Decitabine] (partner 2 µM)
relative viability (HCC-366; first compound 0.2 µM): 0.325 | relative viability (HCC-366; first compound 0.6325 µM): 0.12 | relative viability (HCC-366; first compound 2 µM): 0.294 | relative viability (HCC-366; first compound 6.325 µM): 0.423 | relative viability (HCC-366; first compound 20 µM): 0.0554 | relative viability (NCI-H460; first compound 0.2 µM): 0.595 | relative viability (NCI-H460; first compound 0.6325 µM): 0.136 | relative viability (NCI-H460; first compound 2 µM): 0.455 | relative viability (NCI-H460; first compound 6.325 µM): 0.513 | relative viability (NCI-H460; first compound 20 µM): 0.0203 | relative viability (NCI-H647; first compound 0.2 µM): 0.403 | relative viability (NCI-H647; first compound 0.6325 µM): 0.236 | relative viability (NCI-H647; first compound 2 µM): 0.353 | relative viability (NCI-H647; first compound 6.325 µM): 0.333 | relative viability (NCI-H647; first compound 20 µM): 0.39 | relative viability (PC-14; first compound 0.2 µM): 0.18 | relative viability (PC-14; first compound 0.6325 µM): 0.109 | relative viability (PC-14; first compound 2 µM): 0.211 | relative viability (PC-14; first compound 6.325 µM): 0.21 | relative viability (PC-14; first compound 20 µM): 0.0433 | relative viability (NCI-H441; first compound 0.2 µM): 0.232 | relative viability (NCI-H441; first compound 0.6325 µM): 0.21 | relative viability (NCI-H441; first compound 2 µM): 0.22 | relative viability (NCI-H441; first compound 6.325 µM): 0.23 | relative viability (NCI-H441; first compound 20 µM): 0.169 | relative viability (NCI-H1755; first compound 0.2 µM): 0.785 | relative viability (NCI-H1755; first compound 0.6325 µM): 0.583 | relative viability (NCI-H1755; first compound 2 µM): 0.72 | relative viability (NCI-H1755; first compound 6.325 µM): 0.723 | relative viability (NCI-H1755; first compound 20 µM): 0.772 | relative viability (NCI-H2347; first compound 0.2 µM): 0.705 | relative viability (NCI-H2347; first compound 0.6325 µM): 0.549 | relative viability (NCI-H2347; first compound 2 µM): 0.605 | relative viability (NCI-H2347; first compound 6.325 µM): 0.668 | relative viability (NCI-H2347; first compound 20 µM): 0.63 | relative viability (NCI-H596; first compound 0.2 µM): 1.09 | relative viability (NCI-H596; first compound 0.6325 µM): 0.855 | relative viability (NCI-H596; first compound 2 µM): 0.989 | relative viability (NCI-H596; first compound 6.325 µM): 1.07 | relative viability (NCI-H596; first compound 20 µM): 0.655 | relative viability (UMC-11; first compound 0.2 µM): 0.675 | relative viability (UMC-11; first compound 0.6325 µM): 0.477 | relative viability (UMC-11; first compound 2 µM): 0.399 | relative viability (UMC-11; first compound 6.325 µM): 0.668 | relative viability (UMC-11; first compound 20 µM): 0.46 | relative viability (NCI-H2023; first compound 0.2 µM): 0.211 | relative viability (NCI-H2023; first compound 0.6325 µM): 0.128 | relative viability (NCI-H2023; first compound 2 µM): 0.235 | relative viability (NCI-H2023; first compound 6.325 µM): 0.216 | relative viability (NCI-H2023; first compound 20 µM): 0.209 | relative viability (NCI-H2405; first compound 0.2 µM): 0.593 | relative viability (NCI-H2405; first compound 0.6325 µM): 0.508 | relative viability (NCI-H2405; first compound 6.325 µM): 0.645 | relative viability (NCI-H2405; first compound 20 µM): 0.296 | relative viability (NCI-H1437; first compound 0.2 µM): 0.607 | relative viability (NCI-H1437; first compound 0.6325 µM): 0.37 | relative viability (NCI-H1437; first compound 2 µM): 0.599 | relative viability (NCI-H1437; first compound 6.325 µM): 0.59 | relative viability (NCI-H1437; first compound 20 µM): 0.552 | relative viability (A-427; first compound 0.2 µM): 0.648 | relative viability (A-427; first compound 0.6325 µM): 0.532 | relative viability (A-427; first compound 2 µM): 0.621 | relative viability (A-427; first compound 6.325 µM): 0.568 | relative viability (A-427; first compound 20 µM): 0.501 | relative viability (H3255; first compound 0.2 µM): 0.553 | relative viability (H3255; first compound 0.6325 µM): 0.54 | relative viability (H3255; first compound 2 µM): 0.524 | relative viability (H3255; first compound 6.325 µM): 0.695 | relative viability (H3255; first compound 20 µM): 0.522 | relative viability (PC-3 [JPC-3]; first compound 0.2 µM): 0.822 | relative viability (PC-3 [JPC-3]; first compound 0.6325 µM): 0.712 | relative viability (PC-3 [JPC-3]; first compound 2 µM): 0.841 | relative viability (PC-3 [JPC-3]; first compound 6.325 µM): 0.84 | relative viability (PC-3 [JPC-3]; first compound 20 µM): 0.802 | relative viability (LCLC-103H; first compound 0.2 µM): 0.757 | relative viability (LCLC-103H; first compound 0.6325 µM): 0.55 | relative viability (LCLC-103H; first compound 2 µM): 0.685 | relative viability (LCLC-103H; first compound 6.325 µM): 0.78 | relative viability (LCLC-103H; first compound 20 µM): 0.716 | relative viability (HCC-44; first compound 0.2 µM): 1.04 | relative viability (HCC-44; first compound 0.6325 µM): 0.595 | relative viability (HCC-44; first compound 2 µM): 0.998 | relative viability (HCC-44; first compound 6.325 µM): 0.942 | relative viability (HCC-44; first compound 20 µM): 0.93 | relative viability (ABC-1; first compound 0.2 µM): 1.07 | relative viability (ABC-1; first compound 2 µM): 0.983 | relative viability (ABC-1; first compound 6.325 µM): 1.36 | relative viability (ABC-1; first compound 20 µM): 0.552 | relative viability (NCI-H3122; first compound 0.2 µM): 0.336 | relative viability (NCI-H3122; first compound 0.6325 µM): 0.288 | relative viability (NCI-H3122; first compound 2 µM): 0.425 | relative viability (NCI-H3122; first compound 6.325 µM): 0.367 | relative viability (NCI-H3122; first compound 20 µM): 0.425 | relative viability (NCI-H23; first compound 0.2 µM): 0.277 | relative viability (NCI-H23; first compound 0.6325 µM): 0.221 | relative viability (NCI-H23; first compound 2 µM): 0.282 | relative viability (NCI-H23; first compound 6.325 µM): 0.293 | relative viability (NCI-H23; first compound 20 µM): 0.162 | relative viability (LXF-289; first compound 0.2 µM): 0.383 | relative viability (LXF-289; first compound 0.6325 µM): 0.306 | relative viability (LXF-289; first compound 2 µM): 0.349 | relative viability (LXF-289; first compound 6.325 µM): 0.373 | relative viability (LXF-289; first compound 20 µM): 0.372 | relative viability (NCI-H2009; first compound 0.2 µM): 0.383 | relative viability (NCI-H2009; first compound 0.6325 µM): 0.389 | relative viability (NCI-H2009; first compound 2 µM): 0.341 | relative viability (NCI-H2009; first compound 6.325 µM): 0.345 | relative viability (NCI-H2009; first compound 20 µM): 0.153
